# Reference: US8759334B2, “Compounds useful for the treatment of metabolic and inflammatory diseases” (Galapagos NV, priority 2011, dated 2014)
# Columns and labels:
# GPR43 [1] = biological target: T1, GPR43 (Homo sapiens, UniProt O15552); assay: Calcium mobilization assay with probenecid; assay type: cell-based; conditions: GPR43 stably expressing cells; triggered with sodium acetate at EC80; 2.5 mM probenecid; read-out: GPR43 assay with probenicid IC50
# T1 construct: expressed in transfected cells
# T1 sequence (O15552 1-330): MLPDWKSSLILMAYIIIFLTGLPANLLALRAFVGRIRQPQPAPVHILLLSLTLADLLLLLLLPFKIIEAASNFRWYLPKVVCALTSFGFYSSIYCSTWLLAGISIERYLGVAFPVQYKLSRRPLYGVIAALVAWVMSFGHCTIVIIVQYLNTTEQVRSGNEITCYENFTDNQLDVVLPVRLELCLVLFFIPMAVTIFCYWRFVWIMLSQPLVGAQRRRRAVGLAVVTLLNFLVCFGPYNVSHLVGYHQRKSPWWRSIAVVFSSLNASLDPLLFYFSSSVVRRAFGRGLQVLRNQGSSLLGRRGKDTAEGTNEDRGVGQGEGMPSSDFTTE
# How it was run: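 […] being added at rising concentrations to a GPR43 stable line. Before this, cells were dye-loaded (Calcium 4 with 2.5 mM probenecid) for 2 h at 37 °C after overnight plating.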
# GPR43 [2] = biological target: T1, GPR43; assay: Calcium mobilization assay without probenecid; assay type: cell-based; conditions: GPR43 stably expressing cells, triggered with sodium acetate at EC80, read-out: GPR43 assay without probenicid IC50
# How it was run: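 In GPR43-expressing cells loaded with a Calcium 4 dye, antagonism was tested by a 15 min compound preincubation at 37 °C, then a sodium acetate challenge at EC80, with Ca-flux read on injection. For agonism, Ca-flux was recorded directly on compound injection.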
SMILES,IC50 (GPR43 [1]),IC50 (GPR43 [2])
"CCOC(=O)CN(Cc1ccc(Cl)cc1)C(=O)C1(C)CCN1C(=O)Cc1csc2ccccc12 (centres unmarked) [Compound 58, [[1-(2-Benzo[b]thiophen-3-yl-acetyl)-2-methyl-azetidine-2-carbonyl]-(4-chloro-benzyl)-amino]-acetic acid ethyl ester]",101 to 500 nM,101 to 500 nM
"Cc1cc(C)cc(CC(=O)N2CCC2(C)C(=O)N(CC(=O)O)Cc2cccc(C)c2)c1 (centres unmarked) [Compound 59, [{1-[2-(3,5-Dimethyl-phenyl)-acetyl]-2-methyl-azetidine-2-carbonyl}-(3-methyl-benzyl)-amino]-acetic acid]",> 1000 nM,> 1000 nM
"COC(=O)CN(Cc1cccc(Cl)c1)C(=O)C1(C)CCN1C(=O)Cc1csc2ccccc12 (centres unmarked) [Compound 60, [[1-(2-Benzo[b]thiophen-3-yl-acetyl)-2-methyl-azetidine-2-carbonyl]-(3-chloro-benzyl)-amino]acetic acid methyl ester]",501 to 1000 nM,> 1000 nM
"COC(=O)CCCN(Cc1ccc(Cl)cc1)C(=O)C1(C)CCN1C(=O)Cc1cc(C)cc(C)c1 (centres unmarked) [Compound 63, 4-((4-Chloro-benzyl)-{1-[2-(3,5-dimethyl-phenyl)-acetyl]-2-methyl-azetidine-2-carbonyl}-amino)-butyric acid methyl ester]",101 to 500 nM,101 to 500 nM
"CC1(C(=O)N(CC(=O)O)Cc2cccc(Cl)c2)CCN1C(=O)Cc1csc2ccccc12 (centres unmarked) [Compound 66, [[1-(2-Benzo[b]thiophen-3-yl-acetyl)-2-methyl-azetidine-2-carbonyl]-(3-chloro-benzyl)-amino]-acetic acid]",501 to 1000 nM,101 to 500 nM
"Cc1cc(C)cc(CC(=O)N2CCC2(C)C(=O)N(CC#N)Cc2ccc(Cl)cc2)c1 (centres unmarked) [Compound 68, 1-[2-(3,5-dimethyl-phenyl)-acetyl]-2-methyl-azetidine-2-carboxylic acid (4-chloro-benzyl)-cyanomethyl-amide]",101 to 500 nM,101 to 500 nM
"Cc1cccc(CN(CC(=O)O)C(=O)C2(C)CCN2C(=O)Cc2csc3ccccc23)c1 (centres unmarked) [Compound 69, [[1-(2-Benzo[b]thiophen-3-yl-acetyl)-2-methyl-azetidine-2-carbonyl]-(3-methyl-benzyl)-amino]-acetic acid]",501 to 1000 nM,> 1000 nM
"Cc1cc(C)cc(CC(=O)N2CCC2(C)C(=O)N(CCC(N)=O)Cc2ccc(Cl)cc2)c1 (centres unmarked) [Compound 71, 1-[2-(3,5-Dimethyl-phenyl)-acetyl]-2-methyl-azetidine-2-carboxylic acid (2-carbamoyl-ethyl)-(4-chloro-benzyl)-amide]",501 to 1000 nM,> 1000 nM
"Cc1cc(C)cc(CC(=O)N2CCC2(C)C(=O)N(Cc2ccc(Cl)cc2)CC(C)O)c1 (centres unmarked) [Compound 72, 1-[2-(3,5-Dimethyl-phenyl)-acetyl]-2-methyl-azetidine-2-carboxylic acid (4-chloro-benzyl)-(2-hydroxy-propyl)-amide]",101 to 500 nM,501 to 1000 nM
"Cc1cc(C)cc(CC(=O)N2CCC2(C)C(=O)N(Cc2ccc(Cl)cc2)[C@H](C)C(=O)O)c1 (stereo partly drawn) [Compound 74, (R)-2-((4-Chloro-benzyl)-{1-[2-(3,5-dimethyl-phenyl)-acetyl]-2-methyl-azetidine-2-carbonyl}-amino)-propionic acid]",> 1000 nM,> 1000 nM
"Cc1cc(C)cc(CC(=O)N2CCC2(C)C(=O)N(CC(N)=O)Cc2ccc(Cl)cc2)c1 (centres unmarked) [Compound 75, 1-[2-(3,5-Dimethyl-phenyl)-acetyl]-2-methyl-azetidine-2-carboxylic acid carbamoylmethyl-(4-chloro-benzyl)-amide]",101 to 500 nM,101 to 500 nM
"Cc1cc(C)cc(CC(=O)N2CCC2(C)C(=O)N(CCC#N)Cc2ccc(Cl)cc2)c1 (centres unmarked) [Compound 77, 1-[2-(3,5-Dimethyl-phenyl)-acetyl]-2-methyl-azetidine-2-carboxylic acid (4-chloro-benzyl)-(2-cyano-ethyl)-amide]",101 to 500 nM,> 1000 nM
"CC1(C(=O)N(CC(=O)O)Cc2ccc(Cl)cc2)CCN1C(=O)Cc1coc2ccccc12 (centres unmarked) [Compound 78, [[1-(2-Benzofuran-3-yl-acetyl)-2-methyl-azetidine-2-carbonyl]-(4-chloro-benzyl)-amino]-acetic acid]",101 to 500 nM,101 to 500 nM
"CC1(C(=O)N(CC(=O)O)Cc2ccc(Cl)cc2)CCN1C(=O)Cc1noc2ccccc12 (centres unmarked) [Compound 79, [[1-(2-Benzo[d]isoxazol-3-yl-acetyl)-2-methyl-azetidine-2-carbonyl]-(4-chloro-benzyl)-amino]-acetic acid]",> 1000 nM,> 1000 nM
"Cc1cc(C)cc(CC(=O)N2CCC2(C)C(=O)N(CC(=O)NC(C)C)Cc2ccc(Cl)cc2)c1 (centres unmarked) [Compound 80, 1-[2-(3,5-Dimethyl-phenyl)-acetyl]-2-methyl-azetidine-2-carboxylic acid (4-chloro-benzyl)-(isopropylcarbamoyl-methyl)-amide]",> 1000 nM,> 1000 nM
"Cc1cc(C)cc(CC(=O)N2CC[C@]2(C)C(=O)N(CC(=O)O)Cc2ccc(Cl)cc2)c1 [Compound 82, ((4-Chloro-benzyl)-{(R)-1-[2-(3,5-dimethyl-phenyl)-acetyl]-2-methyl-azetidine-2-carbonyl}-amino)-acetic acid]",101 to 500 nM,101 to 500 nM
"Cc1cc(C)cc(CC(=O)N2CCC2(C)C(=O)N(CC(=O)N2CCOCC2)Cc2ccc(Cl)cc2)c1 (centres unmarked) [Compound 83, 1-[2-(3,5-Dimethyl-phenyl)-acetyl]-2-methyl-azetidine-2-carboxylic acid (4-chloro-benzyl)-(2-morpholin-4-yl-2-oxo-ethyl)-amide]",> 1000 nM,> 1000 nM
"CC1(C(=O)N(CC#N)Cc2ccc(Cl)cc2)CCN1C(=O)Cc1csc2ccccc12 (centres unmarked) [Compound 84, 1-(2-Benzo[b]thiophen-3-yl-acetyl)-2-methyl-azetidine-2-carboxylic acid (4-chloro-benzyl)-cyanomethyl-amide]",101 to 500 nM,101 to 500 nM
"O=C(O)CN(Cc1ccc(Cl)cc1)C(=O)C1(CO)CCN1C(=O)Cc1csc2ccccc12 (centres unmarked) [Compound 85, [[1-(2-Benzo[b]thiophen-3-yl-acetyl)-2-hydroxymethyl-azetidine-2-carbonyl]-(4-chloro-benzyl)-amino]-acetic acid]",101 to 500 nM,> 1000 nM
"COC(=O)CCN(Cc1ccc(Cl)cc1)C(=O)C1(C)CCN1C(=O)Cc1csc2ccccc12 (centres unmarked) [Compound 86, 3-[[1-(2-Benzo[b]thiophen-3-yl-acetyl)-2-methyl-azetidine-2-carbonyl]-(4-chloro-benzyl)-amino]-propionic acid methyl ester]",0.01 to 100 nM,101 to 500 nM
"CCOC(=O)CCCN(Cc1ccc(Cl)cc1)C(=O)C1(C)CCN1C(=O)Cc1csc2ccccc12 (centres unmarked) [Compound 87, 4-[[1-(2-Benzo[b]thiophen-3-yl-acetyl)-2-methyl-azetidine-2-carbonyl]-(4-chloro-benzyl)-amino]-butyric acid ethyl ester]",501 to 1000 nM,501 to 1000 nM
"CC1(C(=O)N(CCC(=O)O)Cc2ccc(Cl)cc2)CCN1C(=O)Cc1csc2ccccc12 (centres unmarked) [Compound 88, 3-[[1-(2-Benzo[b]thiophen-3-yl-acetyl)-2-methyl-azetidine-2-carbonyl]-(4-chloro-benzyl)-amino]-propionic acid]",101 to 500 nM,101 to 500 nM
